Experimental data from patent US4997950A, “Novel C-terminal gastrin antagonists” (priority 1989, dated 1991).
“Also recorded” adds a separate entry of the source. Structures can show the parent of a compound that is named as a salt. Non-standard residues stand in square brackets, D forms with d. Residues, ends and D or L forms follow the SMILES beside them. *: point of attachment. Boc = CC(C)(C)OC(=O)*; βAla = NCCC(=O)O

Assays:
[1] = system: pentagastrin-stimulated acid secretion; test: inhibition of pentagastrin-stimulated acid secretion in dogs with gastric fistula and Heidenhain pouch; type: in vivo, dog (beagle); conditions: for order of decreasing antagonist activity: 20 pmol.kg^-1.h^-1; for effect on pentagastrin-stimulated acid secretion: 20 pmol.kg^-1.h^-1, gastric fistula and Heidenhain pouch; for ACID INHIBITION / percentage inhibition of acid: analogue 20 pmol.kg^-1.h^-1, period 110-170 minutes
Experimental: (§1) In brief, six beagle dogs were surgically prepared with Heidenhain pouches and gastric fistula. The dogs were fasted for 18 hours before the experiment. […] Collections of gastric secretions were recovered at 10 minute intervals. Each dog received an intravenous infusion throughout the experiment consisting of 150 mM NaCl and 8 mM KCl at 2 ml.min^-1. Secretory stimulants and the synthetic peptides were added to this infusion at appropriate rates. The stimulants of gastric secretion used were pentagastrin and histamine phosphate. Pentagastrin (0.5 μg.Kg^-1.h^-1) was given for 1 hour and then the synthetic peptide was added to the infusion and continued for another hour at a dose of 20 pmol.kg^-1 h^-1. The procedure was identical for histamine except that the dose of histamine was […]. The ten minute samples were titrated to pH 7.0 by the addition of sodium hydroxide (1 mM) and the acid secretion was expressed as μmol H^+ per 10 minutes.
The analogues depicted in Table 6.5 were tested as gastrin antagonists using dogs surgically prepared with gastric fistulae and Heidenhain pouches. The acid secretion was measured at 10 minute intervals during the administration of pentagastrin and each of the analogues.

[2] = system: pentagastrin stimulated acid secretion, rat stomach; test: acid secretion from the ligated rat stomach; type: in vivo, rat (Sprague-Dawley); conditions: for ACID SECRETION: basal 26.7 ± 3.21
Experimental: In brief fasted male Sprague-Dawley rats (200-250 g) were anaesthetised by the intravenous administration of Sagital (0.1 mg/100 g body weight). The abdominal cavity of each rat was exposed and the stomach was ligated at the pyloric and cardiac sphincters. The test solution (200 μl), containing either saline, pentagastrin (1 μg) or the synthetic peptide in conjunction with pentagastrin (1 μg), was applied directly to the exposed stomach surface, and left for 80 minutes. The stomach was then removed and the contents were washed out with distilled water (15 ml). The washings were titrated to neutrality by the addition of sodium hydroxide (10 mM).

pepsin secretion = test: inhibition of pepsin secretion in dogs with gastric fistula and Heidenhain pouch; type: in vivo, dog (beagle); conditions: for effect on pepsin secretion: gastric fistula
Experimental: as §1

[3] = system: acid secretion, isolated perfused rat stomach; test: acid output from the isolated, perfused rat stomach, with or without gastrin-17; parameters: species or system rat (Wistar)
Experimental: In brief, stomachs from fasted male Wistar rats (240-270 g) were completely isolated and placed in organ baths filled with Krebs-Ringer buffer. The vascular bed was perfused at a rate of 2 ml.min^-1 with Krebs-Ringer buffer containing 5 mM glucose, 5 mM pyruvate, 40 mg.ml^-1 bovine serum albumin and 10% (v/v) fresh, washed ovine erythrocytes gassed with 96% O2, 4% CO2 by a membrane oxygenator. The gastric lumen was perfused with distilled water (pH 7.0) gassed with O2 (100%). All perfusates and the organ bath were kept at 37° C. After an initial "wash-out" period of 20 minutes, isobutylmethylxanthine (50 μM) was added to the vascular perfusate. After a further 20 minutes, the peptide to be tested was added, giving a final peptide concentration of 10^-9, 10^-7 or 10^-5 M. Five other stomachs were given 520 pM gastrin which was known to produce maximal acid secretion. Furthermore, each peptide was given together with gastrin (520 pM) to evaluate the gastrin inhibitory properties of the peptide. The acid output was determined by titration of the lumenal perfusate to neutrality with dodium hydroxide (1 mM).

[4] = system: gastrin / pentagastrin-stimulated acid secretion; conditions: cited from earlier work

For CC(C)C[C@H](NC(=O)CCc1ccccc1)C(=O)N(C)CCC(=O)O [Peptide XV, Phenyl-3-propionyl-L-Leucyl-N-Methyl-β-Alanine], the “order of decreasing antagonist activity” value [1] was “I>III>XIV>XV>II”, the “effect on pentagastrin-stimulated acid secretion” value [1] was “antagonists with significant activity” and the “ACID INHIBITION” value ([1]; GF (gastric fistula)) was 185.32 mmol H^+ /kg. For the same compound, the “percentage inhibition of acid” value ([1]; GF (gastric fistula)) was 18%.
In the case of CC(C)C[C@H](NC(=O)[C@H](Cc1c[nH]c2ccccc12)NC(=O)OC(C)(C)C)C(=O)NCCC(=O)O [Peptide I, t-Butyloxycarbonyl-L-Tryptophyl-L-Leucyl-β-Alanine] (Boc-Trp-Leu-[βAla]-OH), the “ACID SECRETION” value ([2]; peptide 8.2 nmol/kg + pentagastrin 13 nmol/kg) is reported as 22.7 ± 7.27 μmol/80 min, the “effect on acid secretion, ligated stomach” value ([2]; peptide I 8.2 nmol.Kg^-1 with pentagastrin, peptide XXII 80 or 4 pmol.Kg^-1) is reported as “potent antagonist of pentagastrin stimulated acid secretion; also recorded: reduced to a value similar to the basal level” and the “ACID SECRETION” value ([2]; peptide alone 8.2 nmol/kg) is reported as 28.6 ± 4.21 μmol/80 min. For the same compound, the “order of decreasing antagonist activity” value [1] was “I>III>XIV>XV>II”, the “effect on pentagastrin-stimulated acid secretion” value ([1]; listed as Boc-Trp-Leu-β-Ala) was “retaining potent antagonistic properties” and the “effect on pentagastrin-stimulated acid secretion” value ([1]; listed as Boc-Trp-leu-β-Ala) was “most potent antagonist of the series”. The “ACID INHIBITION” value ([1]; GF (gastric fistula)) was 617.58 mmol H^+ /kg, the “percentage inhibition of acid” value ([1]; GF (gastric fistula)) was 60% and the “ACID INHIBITION” value ([1]; HP (Heidenhain pouch)) was 35.70 mmol H^+ /kg. For the same compound, the “percentage inhibition of acid” value ([1]; HP (Heidenhain pouch)) was 55.8%, the “Inhibition of Pepsin Secretion” value (pepsin secretion; GF (gastric fistula)) was 67.3 Units/kg and the “percentage inhibition of pepsin secretion” value (pepsin secretion; GF (gastric fistula)) was 59.2%. For the same compound, the “Inhibition of Pepsin Secretion” value (pepsin secretion; HP (Heidenhain pouch)) was 1.65 Units/kg and the “effect on pepsin secretion” value (pepsin secretion) was “significant decrease in pepsin secretion from the gastric fistula”.
With CC(C)C[C@H](NC(=O)CCc1ccccc1)C(=O)NCCC(=O)O [Peptide II, Phenyl-3-Propionyl-Leucyl-β-Alanine] the “order of decreasing antagonist activity” value [1] was “I>III>XIV>XV>II”, the “effect on pentagastrin-stimulated acid secretion” value [1] was “gastrin antagonists although they are less potent than the parent peptide” and the “ACID INHIBITION” value ([1]; GF (gastric fistula)) was 562.22 mmol H^+ /kg. The “percentage inhibition of acid” value ([1]; GF (gastric fistula)) was 54.7%, the “ACID INHIBITION” value ([1]; HP (Heidenhain pouch)) was 32.59 mmol H^+ /kg and the “percentage inhibition of acid” value ([1]; HP (Heidenhain pouch)) was 50.92%.
For CC(C)C[C@H](NC(=O)CCc1c[nH]c2ccccc12)C(=O)NCCC(=O)O [Peptide III, Indole-3-Propionyl-L-Leucyl-β-Alanine], the “order of decreasing antagonist activity” value [1] was “I>III>XIV>XV>II”, the “effect on pentagastrin-stimulated acid secretion” value [1] was “gastrin antagonists although they are less potent than the parent peptide” and the “ACID INHIBITION” value ([1]; GF (gastric fistula)) was 125.51 mmol H^+ /kg. The “percentage inhibition of acid” value ([1]; GF (gastric fistula)) was 12.2%, the “Inhibition of Pepsin Secretion” value (pepsin secretion; GF (gastric fistula)) was 71.1 Units/kg and the “percentage inhibition of pepsin secretion” value (pepsin secretion; GF (gastric fistula)) was 62.5%. For the same compound, the “Inhibition of Pepsin Secretion” value (pepsin secretion; HP (Heidenhain pouch)) was 5.78 Units/kg and the “effect on pepsin secretion” value (pepsin secretion) was “significant decrease in pepsin secretion from the gastric fistula”.
In the case of CSCC[C@H](NC(=O)[C@H](Cc1c[nH]c2ccccc12)NC(=O)CCNC(=O)OC(C)(C)C)C(=O)N[C@@H](CC(=O)O)C(=O)N[C@@H](Cc1ccccc1)C(N)=O [PENTAGASTRIN, reference compound], the “ACID SECRETION” value ([2]; pentagastrin 13 nmol/kg alone) is reported as 60.6 ± 8.63 μmol/80 min.
In the case of CC(C)C[C@H](NC(=O)[C@@H](N)Cc1c[nH]c2ccccc12)C(=O)CN[C@@H](CC(=O)O)C(=O)N[C@@H](Cc1ccccc1)C(N)=O [Peptide XXI, L-Tryptophyl-L-Leucyl-.psi.(COCH2 NH)-L-Aspartyl-L-Phenylalanyl amide dihydrochloride], the “effect on acid secretion, isolated perfused stomach” value ([3]; 10^-9 to 10^-5 M, absence or presence of gastrin-17 520 pM, dihydrochloride) is reported as “At low concentrations it inhibits basal acid secretion; also recorded: when administered at 10^-5 M or in conjunction with gastrin-17, it acts as a weak agonist; also recorded: partial agonist”, the Acid output ([3]; peptide 10^-5 M + G-17 (520 pM), gastrin alone 58.7) is reported as 68.5 μmol H^+ /60 min and the Acid output ([3]; peptide 10^-5 M, basal 8.7) is reported as 22.4 μmol H^+ /60 min. For the same compound, the Acid output ([3]; peptide 10^-7 M, basal 8.7) was 1.6 μmol H^+ /60 min and the Acid output ([3]; peptide 10^-9 M, basal 8.7) was 2.2 μmol H^+ /60 min.
In the case of CC(C)C[C@H](NC(=O)[C@H](Cc1c[nH]c2ccccc12)NC(=O)OC(C)(C)C)C(=O)N[C@@H](CC(=O)O)C(N)=O [N-tBOC-Trp-Leu-Asp-NH2] (Boc-Trp-Leu-Asp-NH2), the “antagonist activity” value [4] is given as “shortest sequence still retaining antagonist activity”, the “concentration at which antagonist properties are exhibited” value [4] is given as 100 µM and the “reduction of acid secretion” value ([4]; joint infusion of peptide (40 μg/kg) and pentagastrin (0.5 μg/kg)) is given as 50%.
In the case of CC(C)C[C@@H](C(=O)NCCC(=O)O)N(C)C(=O)CCc1ccccc1 [Peptide XIV, Phenyl-3-propionyl-N-methyl-L-Leucyl-β-Alanine], the “order of decreasing antagonist activity” value [1] is reported as “I>III>XIV>XV>II”, the “effect on pentagastrin-stimulated acid secretion” value [1] is reported as “antagonists with significant activity” and the “ACID INHIBITION” value ([1]; GF (gastric fistula)) is reported as 256.77 mmol H^+ /kg. The “percentage inhibition of acid” value ([1]; GF (gastric fistula)) was 25%.
In the case of CC(C)C[C@H](NC(=O)[C@H](Cc1c[nH]c2ccccc12)NC(=O)CN1CC[C@H](NC(=O)[C@H](C)NC(=O)OC(C)(C)C)C1=O)C(=O)N[C@@H](CC(=O)O)C(=O)N[C@@H](Cc1ccccc1)C(N)=O [Peptide XXII, t-Butyloxycarbonyl-L-Alanyl-amino-2-oxo-1-pyrrolidineacetyl-L-Tryptophyl-L-Leucyl-L-Aspartyl-L-Phenylalanyl amide], the “increase of affinity for the gastrin receptor as compared to pentagastrin” value ([2]; deduced from γ-lactam peptide acid secretion) is reported as “approximately 120 fold”.
For CSCCC(NC(=O)C(Cc1c[nH]c2ccccc12)NC(=O)CNC(=O)C(Cc1ccc(O)cc1)NC(=O)C(C)NC(=O)C(CCC(=O)O)NC(=O)C(CCC(=O)O)NC(=O)C(CCC(=O)O)NC(=O)[C@H](CCC(=O)O)NC(=O)[C@H](CCC(=O)O)NC(=O)[C@H](CC(C)C)NC(=O)[C@H](Cc1c[nH]c2ccccc12)NC(=O)[C@@H]1CCCN1C(=O)CNC(=O)[C@@H](N)CCC(=O)O)C(=O)NC(CC(=O)O)C(=O)NC(Cc1ccccc1)C(N)=O (stereo in doubt) [GASTRIN], the Acid output ([3]; gastrin 520 pM alone, basal 8.7) was 58.7 μmol H^+ /60 min.
For CC(C)C[C@H](NC(=O)CCc1c[nH]c2ccccc12)C(=O)N[C@@H](CC(=O)O)C(=O)NCCc1ccccc1 [Peptide V, Indole-3-Propionyl-L-Leucyl-L-Aspartyl-Phenethylamide], the “ACID INHIBITION” value ([1]; GF (gastric fistula)) was 303.25 mmol H^+ /kg, the “percentage inhibition of acid” value ([1]; GF (gastric fistula)) was 29.5% and the “ACID INHIBITION” value ([1]; HP (Heidenhain pouch)) was 11.00 mmol H^+ /kg. For the same compound, the “percentage inhibition of acid” value ([1]; HP (Heidenhain pouch)) was 17.2%, the “Inhibition of Pepsin Secretion” value (pepsin secretion; GF (gastric fistula)) was -3.1 Units/kg and the “percentage inhibition of pepsin secretion” value (pepsin secretion; GF (gastric fistula)) was 0%. For the same compound, the “Inhibition of Pepsin Secretion” value (pepsin secretion; HP (Heidenhain pouch)) was 2.04 Units/kg.
